Test results: patent US10639251B2, “Method for inhibiting or masking fishy odours” (Symrise AG, priority 2015, dated 2020)

Legend:
hTAAR5 = biological target: T1, hTAAR5 (Homo sapiens, UniProt O14804); conditions: agonist; cited from earlier work
T1 construct: expressed in transfected cells; host or cells: HANA3A cells
T1 sequence (O14804 1-337): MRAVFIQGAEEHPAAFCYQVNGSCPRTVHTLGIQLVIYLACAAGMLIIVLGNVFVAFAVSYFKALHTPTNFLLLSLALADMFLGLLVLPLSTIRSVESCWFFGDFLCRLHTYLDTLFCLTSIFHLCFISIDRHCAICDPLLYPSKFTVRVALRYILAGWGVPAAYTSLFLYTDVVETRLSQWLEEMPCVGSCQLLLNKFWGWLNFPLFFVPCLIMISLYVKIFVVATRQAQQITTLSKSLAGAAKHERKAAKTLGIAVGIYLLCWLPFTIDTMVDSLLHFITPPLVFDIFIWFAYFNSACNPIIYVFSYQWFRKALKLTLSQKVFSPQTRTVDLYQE

hOR51E1 = biological target: T2, hOR51E1 (Homo sapiens, UniProt Q8TCB6); experiment: Cre-luciferase reporter gene assay, concentration-response curve of nonanoic acid on hOR51E1 (Dual-Glo Luciferase, transfected HANA3A cells); type: cell-based; parameters: expressed in transfected cells; host or cells: HANA3A; conditions: agonist alone; human olfactory receptor hOR51E1 recombinantly expressed in HANA3A cells with RTP1S, G-protein αolf, M3 muscarinic acetylcholine receptor, pGL4-luciferase and pRL-TK-Renilla reporters; 4 h at 37° C.; Hill fit; n=3 in duplicate; FIG. 4B left
T2 sequence (Q8TCB6 1-318): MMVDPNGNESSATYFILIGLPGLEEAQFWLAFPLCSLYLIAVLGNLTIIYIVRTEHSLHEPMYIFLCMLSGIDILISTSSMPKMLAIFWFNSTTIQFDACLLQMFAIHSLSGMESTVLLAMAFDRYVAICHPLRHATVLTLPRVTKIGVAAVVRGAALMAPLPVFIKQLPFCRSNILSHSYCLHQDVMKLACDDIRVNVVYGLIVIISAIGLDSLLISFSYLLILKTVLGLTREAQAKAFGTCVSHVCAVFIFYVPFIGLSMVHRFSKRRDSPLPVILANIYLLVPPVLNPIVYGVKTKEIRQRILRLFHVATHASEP
Description: In order to identify suitable antagonist for TMA the protocol of Zhuang and Matsunami for measuring receptor activity with the Dual-Glo Luciferase Assay System (Promega) was adapted [see Nat. Protoc. 3(9), p. 1402-1413 (2008)]. HANA3A cells were maintained under standard conditions in DMEM supplemented with 10% FBS and 100 units/ml penicillin and streptomycin at 37° C. Cells (approximately 15,000 cells/well) were plated on poly-D-lysine-coated 96-well plates (NUNC) and transfected after 24 h with the FuGENE® HD (Promega) transfection reagent according to the manufacturer's protocol. […] Expression rates of Cre-luciferase were monitored by luminescent enzymatic reactivity. Thus, luminescence signals correlate with receptor activation. […]
For statistical analysis of Cre-luciferase assay data, two-tailed unpaired Student's t-test. […] Sensory data was analyzed using non-parametric statistical tests. The overall difference between the group thresholds was determined by a Kruskal-Wallis test, followed by a Dunn post-hoc test for the respective pairwise comparisons.
Another experiment was directed to figure out whether the Timberol® block is exclusively mediated by hTAAR5. […] Then the impact of Timberol® on MOR42-3- and hOR51E1-mediated responses to the respective agonists was tested with concentrations below and above the calculated EC50 values. […]

humans = conditions: in vivo; cited from earlier work

CCN(C)C [DMEA, dimethylethylamine]
activation of hTAAR5 (hTAAR5): less efficacy and potency

CCCCCCCCC(=O)O [Nonanoic acid, nonanoic acid]
EC50 (hOR51E1): 103 ± 23.1 µM

CN [methylamine]
detection threshold in humans (humans): 180 ppm
